Results: PubChem BioAssay (NCI)
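Assay format: 96-well plates, 48-hour exposure. TGI marks complete inhibition of growth.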

Tests used:
Assay in all cases: NCI tumour cell line growth inhibition, 48 h
[1] = system: SF-268 CNS
[2] = system: M19-MEL melanoma
[3] = system: OVCAR-5 ovarian
[4] = system: HOP-92 NSCLC
[5] = system: DMS 114 small cell lung
[6] = system: OVCAR-3 ovarian
[7] = system: SW-620 colon
[8] = system: OVCAR-4 ovarian
[9] = system: COLO 205 colon
[10] = system: SF-295 CNS
[11] = system: NCI-H23 lung
[12] = system: SNB-19 CNS
[13] = system: K-562 leukemia
[14] = system: SK-MEL-2 melanoma
[15] = system: SNB-78 CNS
[16] = system: NCI-H522 lung
[17] = system: U251 CNS
[18] = system: UO-31 renal
[19] = system: EKVX NSCLC
[20] = system: CCRF-CEM leukemia
[21] = system: NCI-H460 lung
[22] = system: ACHN renal
[23] = system: HOP-62 NSCLC
[24] = system: SNB-75 CNS
[25] = system: SK-OV-3 ovarian
[26] = system: SK-MEL-28 melanoma
[27] = system: TK-10 renal
[28] = system: KM12 colon
[29] = system: MOLT-4 leukemia
[30] = system: HT29 colon
[31] = system: XF 498 CNS
[32] = system: SK-MEL-5 melanoma
[33] = system: KM20L2 colon
[34] = system: DMS 273 small cell lung
[35] = system: UACC-62 melanoma
[36] = system: HCT-116 colon
[37] = system: NCI-H226 lung
[38] = system: RPMI-8226 leukemia
[39] = system: HL-60(TB) leukemia
[40] = system: UACC-257 melanoma
[41] = system: LOX IMVI melanoma
[42] = system: IGROV1 ovarian
[43] = system: LXFL 529 NSCLC
[44] = system: HOP-18 NSCLC
[45] = system: OVCAR-8 ovarian
[46] = system: SF-539 CNS
[47] = system: SN12C renal
[48] = system: CAKI-1 renal
[49] = system: A549 NSCLC
[50] = system: HCT-15 colon
[51] = system: DLD-1 colon
[52] = system: 786-0 renal
[53] = system: M14 melanoma
[54] = system: A498 renal
[55] = system: HCC-2998 colon
[56] = system: MALME-3M melanoma
[57] = system: SR leukemia
[58] = system: RXF 393 renal
[59] = system: RXF-631 renal

## COc1ccc(-c2cnoc2-c2ccc(OC)c(OC)c2)cc1OC
[1]
  TGI: 15 µM
[2]
  TGI: 11.3 µM
[3]
  TGI: 36 µM
[4]
  TGI: 21.3 µM
[5]
  TGI: 2.23 µM
[6]
  TGI: 7.54 µM
[7]
  TGI: > 37.5 µM
[8]
  TGI: > 100 µM
[9]
  TGI: 3.86 µM
[10]
  TGI: 4.27 µM
[11]
  TGI: 3.97 µM
[12]
  TGI: 98.6 µM
[13]
  TGI: > 100 µM
[14]
  TGI: 42.7 µM
[15]
  TGI: > 26.8 µM
[16]
  TGI: 2.1 µM
[17]
  TGI: 11.4 µM
[18]
  TGI: 41.6 µM
[19]
  TGI: 20.7 µM
[20]
  TGI: 13.4 µM
[21]
  TGI: 19.8 µM
[22]
  TGI: > 74.2 µM
[23]
  TGI: 20.5 µM
[24]
  TGI: 6.53 µM
[25]
  TGI: 5.41 µM
[26]
  TGI: > 21.9 µM
[27]
  TGI: 43.2 µM
[28]
  TGI: 16.9 µM
[29]
  TGI: 35.9 µM
[30]
  TGI: 11.1 µM
[31]
  TGI: 9.99 µM
[32]
  TGI: 6.71 µM
[33]
  TGI: > 22.4 µM
[34]
  TGI: 2.02 µM
[35]
  TGI: 1.78 µM
[36]
  TGI: 12.6 µM
[37]
  TGI: > 24 µM
[38]
  TGI: 18.5 µM
[39]
  TGI: 2.88 µM
[40]
  TGI: > 100 µM
[41]
  TGI: 5.22 µM
[42]
  TGI: 9.53 µM
[43]
  TGI: > 100 µM
[44]
  TGI: > 59.5 µM
[45]
  TGI: 40.9 µM
[46]
  TGI: 3.3 µM
[47]
  TGI: 33.7 µM
[48]
  TGI: > 68.1 µM
[49]
  TGI: > 44.8 µM
[50]
  TGI: 9.01 µM
[51]
  TGI: > 63.7 µM
[52]
  TGI: 6.9 µM
[53]
  TGI: 5.39 µM
[54]
  TGI: 21.2 µM

## O=C(Cc1nc2ccccc2c(=O)n1-c1c(Cl)cccc1Cl)c1ccncc1
[1]
  TGI: > 100 µM
[2]
  TGI: 39.6 µM
[4]
  TGI: 69.8 µM
[5]
  TGI: 78.6 µM
[6]
  TGI: 77.8 µM
[55]
  TGI: 44.2 µM
[7]
  TGI: > 100 µM
[8]
  TGI: 80.7 µM
[9]
  TGI: 33.6 µM
[10]
  TGI: 36.5 µM
[11]
  TGI: > 100 µM
[12]
  TGI: > 100 µM
[13]
  TGI: > 100 µM
[14]
  TGI: 46.3 µM
[15]
  TGI: > 100 µM
[16]
  TGI: 49.5 µM
[17]
  TGI: > 100 µM
[56]
  TGI: 56.2 µM
[18]
  TGI: 55 µM
[19]
  TGI: > 100 µM
[20]
  TGI: 45.2 µM
[21]
  TGI: 52.2 µM
[57]
  TGI: 39.8 µM
[22]
  TGI: 42.4 µM
[23]
  TGI: 47.9 µM
[24]
  TGI: 68.2 µM
[25]
  TGI: > 100 µM
[26]
  TGI: 43.6 µM
[27]
  TGI: > 10 µM
[28]
  TGI: 32.3 µM
[29]
  TGI: 42.2 µM
[30]
  TGI: 45.8 µM
[32]
  TGI: 29.4 µM
[33]
  TGI: 85.9 µM
[34]
  TGI: 40.6 µM
[35]
  TGI: 56.6 µM
[36]
  TGI: 39.7 µM
[37]
  TGI: > 10 µM
[58]
  TGI: 65.7 µM
[39]
  TGI: 30.6 µM
[40]
  TGI: 54.3 µM
[41]
  TGI: > 10 µM
[42]
  TGI: 49.7 µM
[43]
  TGI: > 100 µM
[44]
  TGI: 93.1 µM
[59]
  TGI: 63.3 µM
[45]
  TGI: > 100 µM
[46]
  TGI: 34.5 µM
[47]
  TGI: > 100 µM
[48]
  TGI: 86.1 µM
[49]
  TGI: 46.9 µM
[50]
  TGI: > 100 µM
[51]
  TGI: > 100 µM
[52]
  TGI: 88.9 µM
[53]
  TGI: > 100 µM
[54]
  TGI: 72.3 µM

## O=C1c2ccccc2C(=O)C2C1C1C(=O)c3ccccc3C(=O)C21 (stereo not given)
[1]
  TGI: > 100 µM
[2]
  TGI: > 100 µM
[3]
  TGI: > 100 µM
[4]
  TGI: > 100 µM
[5]
  TGI: > 100 µM
[6]
  TGI: > 100 µM
[55]
  TGI: > 100 µM
[7]
  TGI: > 100 µM
[8]
  TGI: > 100 µM
[9]
  TGI: > 100 µM
[10]
  TGI: > 100 µM
[11]
  TGI: > 100 µM
[12]
  TGI: > 100 µM
[13]
  TGI: > 100 µM
[14]
  TGI: > 100 µM
[16]
  TGI: > 100 µM
[17]
  TGI: > 100 µM
[56]
  TGI: > 100 µM
[18]
  TGI: > 100 µM
[19]
  TGI: > 100 µM
[20]
  TGI: > 100 µM
[21]
  TGI: > 100 µM
[22]
  TGI: > 100 µM
[23]
  TGI: > 100 µM
[24]
  TGI: > 100 µM
[25]
  TGI: > 100 µM
[26]
  TGI: > 100 µM
[27]
  TGI: > 100 µM
[28]
  TGI: > 100 µM
[30]
  TGI: > 100 µM
[32]
  TGI: > 100 µM
[33]
  TGI: > 100 µM
[34]
  TGI: > 100 µM
[35]
  TGI: > 100 µM
[58]
  TGI: > 100 µM
[39]
  TGI: > 100 µM
[40]
  TGI: > 100 µM
[41]
  TGI: > 100 µM
[42]
  TGI: > 100 µM
[43]
  TGI: > 100 µM
[44]
  TGI: > 100 µM
[59]
  TGI: > 100 µM
[45]
  TGI: > 100 µM
[46]
  TGI: > 100 µM
[47]
  TGI: > 100 µM
[48]
  TGI: > 100 µM
[49]
  TGI: > 100 µM
[50]
  TGI: > 100 µM
[51]
  TGI: > 100 µM
[52]
  TGI: > 100 µM
[53]
  TGI: > 100 µM

## COc1c(C2=NC(C(C)C)CO2)ccc2ccccc12 (stereo not given)
[1]
  TGI: > 100 µM
[2]
  TGI: > 100 µM
[3]
  TGI: > 100 µM
[4]
  TGI: > 100 µM
[6]
  TGI: > 100 µM
[55]
  TGI: > 100 µM
[7]
  TGI: > 100 µM
[8]
  TGI: > 100 µM
[9]
  TGI: > 100 µM
[10]
  TGI: > 100 µM
[11]
  TGI: > 100 µM
[12]
  TGI: > 100 µM
[13]
  TGI: > 100 µM
[14]
  TGI: > 100 µM
[15]
  TGI: > 100 µM
[16]
  TGI: 99.8 µM
[56]
  TGI: > 100 µM
[18]
  TGI: > 100 µM
[19]
  TGI: > 100 µM
[20]
  TGI: > 100 µM
[21]
  TGI: > 100 µM
[22]
  TGI: > 100 µM
[23]
  TGI: > 100 µM
[24]
  TGI: > 100 µM
[25]
  TGI: > 100 µM
[26]
  TGI: > 100 µM
[27]
  TGI: > 100 µM
[28]
  TGI: > 100 µM
[29]
  TGI: 50.3 µM
[30]
  TGI: > 100 µM
[31]
  TGI: > 100 µM
[32]
  TGI: 36.3 µM
[33]
  TGI: > 100 µM
[34]
  TGI: > 100 µM
[35]
  TGI: > 100 µM
[37]
  TGI: > 100 µM
[38]
  TGI: 65.6 µM
[58]
  TGI: 86.8 µM
[39]
  TGI: 42.9 µM
[40]
  TGI: > 100 µM
[41]
  TGI: > 100 µM
[42]
  TGI: > 100 µM
[43]
  TGI: > 100 µM
[59]
  TGI: > 100 µM
[45]
  TGI: > 100 µM
[46]
  TGI: > 100 µM
[47]
  TGI: > 100 µM
[48]
  TGI: > 100 µM
[49]
  TGI: > 100 µM
[50]
  TGI: > 100 µM
[51]
  TGI: > 100 µM
[52]
  TGI: > 100 µM
[53]
  TGI: > 100 µM
[54]
  TGI: > 100 µM
